The values below come from patent publication US9006464B2, “Substituted cyclopentanes having prostaglandin activity” (Allergan, Inc., priority 2007, dated 2015).

One data set has as its target T1, DP (Homo sapiens, UniProt Q13258).
T1 sequence (Q13258 1-359): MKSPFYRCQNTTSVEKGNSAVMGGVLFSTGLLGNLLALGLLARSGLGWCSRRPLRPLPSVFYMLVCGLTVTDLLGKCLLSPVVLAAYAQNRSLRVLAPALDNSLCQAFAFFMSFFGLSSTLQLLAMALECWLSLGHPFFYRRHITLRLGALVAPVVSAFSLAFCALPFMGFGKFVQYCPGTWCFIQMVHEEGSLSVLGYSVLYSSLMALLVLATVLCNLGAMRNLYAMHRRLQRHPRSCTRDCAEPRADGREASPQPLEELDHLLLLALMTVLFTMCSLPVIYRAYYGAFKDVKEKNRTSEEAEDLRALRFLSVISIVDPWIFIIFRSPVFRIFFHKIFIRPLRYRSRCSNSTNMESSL
Kind of data set: Other receptors Ca2+ assay, DP. Type of data set: cell-based. The conditions noted are these: DP receptor. The source says: (§1) U.S. patent application Ser. No. 11/553,143, filed on Oct. 26, 2006, incorporated by reference herein, describes the methods used to obtain the in vitro data in Table 1 below.

Another data set concerns the target T2, EP3 (Homo sapiens, UniProt P43115).
T2 sequence (P43115 1-390): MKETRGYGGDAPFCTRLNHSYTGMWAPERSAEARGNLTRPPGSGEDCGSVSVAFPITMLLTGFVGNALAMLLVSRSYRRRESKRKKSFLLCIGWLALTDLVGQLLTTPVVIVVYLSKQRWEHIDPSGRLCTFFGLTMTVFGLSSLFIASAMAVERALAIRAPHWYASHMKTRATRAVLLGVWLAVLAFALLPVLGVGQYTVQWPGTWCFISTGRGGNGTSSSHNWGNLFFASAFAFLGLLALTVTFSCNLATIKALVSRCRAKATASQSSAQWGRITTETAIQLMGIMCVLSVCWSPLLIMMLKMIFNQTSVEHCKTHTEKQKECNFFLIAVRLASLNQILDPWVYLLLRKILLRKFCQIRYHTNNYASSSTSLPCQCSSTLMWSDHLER
Nature of the data set: Other receptors Ca2+ assay, EP3. The format is cell-based. The conditions noted are these: EP3 receptor.
Excerpt: as §1

The next data set addresses T3, EP1 (Homo sapiens, UniProt P34995).
T3 sequence (P34995 1-402): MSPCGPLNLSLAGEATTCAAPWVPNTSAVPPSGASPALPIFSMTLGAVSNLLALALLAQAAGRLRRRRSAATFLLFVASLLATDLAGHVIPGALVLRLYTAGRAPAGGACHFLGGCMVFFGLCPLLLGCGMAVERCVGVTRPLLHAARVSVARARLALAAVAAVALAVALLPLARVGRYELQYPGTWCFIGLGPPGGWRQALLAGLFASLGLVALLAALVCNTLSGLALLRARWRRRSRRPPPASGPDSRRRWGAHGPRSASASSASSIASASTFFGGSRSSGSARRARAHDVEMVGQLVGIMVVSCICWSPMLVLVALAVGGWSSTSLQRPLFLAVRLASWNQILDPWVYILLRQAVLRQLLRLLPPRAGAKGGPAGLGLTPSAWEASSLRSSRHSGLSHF
Nature of the data set: Other receptors Ca2+ assay, EP1. Type of data set: cell-based. The conditions noted are these: EP1 receptor.
Excerpt: as §1

In data set [1] the target is T4, EP2 (Homo sapiens, UniProt P43116). Kind of data set: EP2 cAMP assay. Type of data set: cell-based.
T4 sequence (P43116 whole entry): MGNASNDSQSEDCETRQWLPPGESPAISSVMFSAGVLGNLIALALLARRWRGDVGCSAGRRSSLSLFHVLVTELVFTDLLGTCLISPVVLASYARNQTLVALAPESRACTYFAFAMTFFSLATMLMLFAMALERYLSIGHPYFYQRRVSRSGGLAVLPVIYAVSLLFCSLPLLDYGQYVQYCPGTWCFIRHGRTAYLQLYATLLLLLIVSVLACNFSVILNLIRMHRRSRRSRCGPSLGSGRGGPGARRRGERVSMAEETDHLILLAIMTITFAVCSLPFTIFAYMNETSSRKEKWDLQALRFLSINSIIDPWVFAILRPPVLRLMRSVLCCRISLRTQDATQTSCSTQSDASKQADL
Excerpt: as §1
In general terms: Changes in cAMP serve as a functional read-out for many G protein-coupled receptors.

The next data set has as its target T5, TP (Homo sapiens, UniProt P21731).
T5 sequence (P21731 1-343): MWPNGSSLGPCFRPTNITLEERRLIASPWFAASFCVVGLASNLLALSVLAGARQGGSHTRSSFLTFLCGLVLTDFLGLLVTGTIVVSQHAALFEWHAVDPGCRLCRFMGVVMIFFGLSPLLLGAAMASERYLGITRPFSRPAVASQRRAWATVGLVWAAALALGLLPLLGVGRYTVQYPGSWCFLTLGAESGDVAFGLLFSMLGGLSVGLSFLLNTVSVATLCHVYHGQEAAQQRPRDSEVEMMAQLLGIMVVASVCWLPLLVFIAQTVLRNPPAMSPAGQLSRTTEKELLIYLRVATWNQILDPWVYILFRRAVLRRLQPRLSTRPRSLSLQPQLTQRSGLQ
Nature of the data set: Other receptors Ca2+ assay, TP. The conditions noted are these: TP receptor. Type of data set: cell-based.
Excerpt: as §1

The target of data set [2] is T6, EP4 (Homo sapiens, UniProt P35408). Nature of the data set: EP4 Ca2+ signal assay. Type of data set: cell-based.
T6 sequence (P35408 whole entry): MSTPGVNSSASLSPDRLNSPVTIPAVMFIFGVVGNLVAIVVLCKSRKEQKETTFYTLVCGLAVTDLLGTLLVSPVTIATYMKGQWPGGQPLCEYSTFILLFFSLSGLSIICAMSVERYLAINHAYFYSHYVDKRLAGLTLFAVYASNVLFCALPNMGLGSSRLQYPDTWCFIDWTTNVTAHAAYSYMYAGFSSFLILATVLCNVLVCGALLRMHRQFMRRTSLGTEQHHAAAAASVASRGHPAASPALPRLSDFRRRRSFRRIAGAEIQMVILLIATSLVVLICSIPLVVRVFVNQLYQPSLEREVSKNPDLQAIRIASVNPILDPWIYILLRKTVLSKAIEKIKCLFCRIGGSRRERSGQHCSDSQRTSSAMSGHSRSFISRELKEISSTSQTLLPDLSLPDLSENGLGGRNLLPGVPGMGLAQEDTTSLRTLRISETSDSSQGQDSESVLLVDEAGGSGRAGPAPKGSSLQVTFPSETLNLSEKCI
Excerpt: as §1

Data set [3] deals with T4, EP2. Kind of data set: EP2 Ca2+ signal assay. Type of data set: cell-based.
Excerpt: as §1

Data set [4] addresses T6, EP4. Nature of the data set: EP4 binding (Ki).
Excerpt: as §1

Data set [5] addresses T4, EP2. Kind of data set: EP2 binding (Ki).
Excerpt: as §1

The test system of data set [6] is DOG. Nature of the data set: Dog ocular hyperemia. Type of data set: in vivo. An excerpt: (§2) U.S. Pat. No. 7,091,231, incorporated by reference herein, describes the methods used to obtain the in vivo test results presented in Table 2.
Another data set deals with MONKEY. Kind of data set: Monkey intraocular pressure test. The format is in vivo.
Excerpt: as §2

The subject of data set [7] is DOG. Kind of data set: Dog intraocular pressure test. Type of data set: in vivo.
Excerpt: as §2

The target of another data set is FP (Homo sapiens, UniProt P43088). Kind of data set: Other receptors Ca2+ assay, FP. Type of data set: cell-based. The conditions noted are these: FP receptor.
Chain of FP (P43088 whole entry): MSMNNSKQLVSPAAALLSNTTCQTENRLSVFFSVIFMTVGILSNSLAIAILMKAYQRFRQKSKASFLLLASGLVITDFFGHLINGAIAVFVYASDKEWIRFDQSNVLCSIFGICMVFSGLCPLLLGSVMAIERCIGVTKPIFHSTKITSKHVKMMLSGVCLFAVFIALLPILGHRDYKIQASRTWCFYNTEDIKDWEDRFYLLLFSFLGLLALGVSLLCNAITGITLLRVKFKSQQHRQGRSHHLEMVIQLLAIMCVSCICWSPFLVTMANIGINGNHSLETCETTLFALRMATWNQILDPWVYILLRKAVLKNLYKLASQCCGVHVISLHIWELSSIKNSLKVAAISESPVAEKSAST
Excerpt: as §1

For a further data set, the target named is IP (Homo sapiens, UniProt P43119). Kind of data set: Other receptors Ca2+ assay, IP. The conditions noted are these: IP receptor. The format is cell-based.
Chain of IP (P43119 whole entry): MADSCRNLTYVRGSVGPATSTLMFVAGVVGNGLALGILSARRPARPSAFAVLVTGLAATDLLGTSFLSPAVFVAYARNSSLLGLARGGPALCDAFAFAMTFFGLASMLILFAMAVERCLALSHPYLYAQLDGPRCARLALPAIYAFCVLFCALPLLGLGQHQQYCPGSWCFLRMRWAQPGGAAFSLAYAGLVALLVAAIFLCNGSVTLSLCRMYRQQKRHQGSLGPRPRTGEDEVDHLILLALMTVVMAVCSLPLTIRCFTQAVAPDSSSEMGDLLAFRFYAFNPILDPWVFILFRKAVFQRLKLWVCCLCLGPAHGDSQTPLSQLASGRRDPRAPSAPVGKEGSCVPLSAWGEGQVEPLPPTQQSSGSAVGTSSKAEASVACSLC
Excerpt: as §1

Some results are limits rather than exact numbers.

As usually defined, the EC50 is the concentration at which the effect is half-maximal. As usually defined, the Ki is the equilibrium dissociation constant of an inhibitor or competing ligand from its target. With `CCCCCC(O)/C=C/[C@@H]1[C@@H](CCCc2ccc(C(=O)O)s2)[C@H](Cl)C[C@H]1O` (single isomer, unassigned) [Entry 15], the concentration giving a half-maximal response (EC50) worked out at 10 nM on DP; 6 nM on EP3; 1.3 nM at EP1; 0.4 nM at EP2 [1]; 178 nM at TP; 0.2 nM on EP4 [2]. Moreover, on EP2 [3], the EC50 was 0.8 nM. The Ki on EP4 [4] turned out to be 4 nM; at EP2 [5], 7 nM.
Turning to `CCCCCCCC[C@@H]1[C@@H](CCCc2ccc(C(=O)OCCO)s2)[C@H](Cl)C[C@H]1O` [Entry 1-8, 5-[3-((1R,2R,3R,5R)-5-Chloro-3-hydroxy-2-octyl-cyclopentyl)-propyl]-thiophene-2-carboxylic acid 2-hydroxy-ethyl ester], the “DOG Max. hyperemia” value with DOG [6] (Conc. 0.01 g/100 mL) is listed as 2.0. In the data set on MONKEY (Conc. 0.01 g/100 mL), the “MONKEY Max. ΔIOP” value came to 53%. The “DOG Max. ΔIOP” value with DOG [7] (Conc. 0.01 g/100 mL) is given as 35%.
As to `CCCCCCCC[C@@H]1[C@@H](CCCc2ccc(C(=O)OC(C)C)s2)[C@H](Cl)C[C@H]1O` [Entry 1-9], in the data set with DOG [6] (Conc. 0.01 g/100 mL), the “DOG Max. hyperemia” value worked out at 0.9. In the data set on DOG [7] (Conc. 0.01 g/100 mL), the “DOG Max. ΔIOP” value came to 22%.
Take `CCCCCCC[C@@H]1[C@@H](CCCc2ccc(C(=O)O)s2)[C@H](Cl)C[C@H]1O` [Entry 3, 5-[3-((1R,2R,3R,5R)-5-Chloro-2-heptyl-3-hydroxy-cyclopentyl)-propyl]-thiophene-2-carboxylic acid]: the concentration for a half-maximal effect (EC50) is 2250 nM at DP; 6660 nM on EP3; no less than 10000 nM on FP; 3390 nM on EP1; 2 nM on EP2 [1]; no less than 10000 nM at TP. Also, the EC50 at EP4 [2] was 7510 nM; at EP2 [3], 67 nM; at IP, greater than 10000 nM. The inhibition constant Ki worked out at 330 nM on EP4 [4] and 3 nM at EP2 [5].
In the case of `CCCCCCCC[C@@H]1[C@@H](CCCc2ccc(C(=O)O)s2)[C@H](Cl)C[C@H]1O` [Entry 4, 5-[3-((1R,2R,3R,5R)-5-Chloro-3-hydroxy-2-octyl-cyclopentyl)-propyl]-thiophene-2-carboxylic acid], the EC50 on DP is 6770 nM; on EP3 it was 9530 nM; on EP1 it was 18200 nM; on EP2 [1] it was 0.4 nM; on EP4 [2] it was 11400 nM; at EP2 [3] it was 11 nM. For the same compound, in the data set with DOG [6] (Conc. 0.01 g/100 mL), the “DOG Max. hyperemia” value is on record as 1.3. Besides, the “MONKEY Max. ΔIOP” value in the data set on MONKEY (Conc. 0.01 g/100 mL) was determined as 31%. Further, in the data set on DOG [7] (Conc. 0.01 g/100 mL), the “DOG Max. ΔIOP” value is recorded as 40%. For the same compound, the inhibition constant (Ki) on EP4 [4] turned out to be 395 nM; at EP2 [5], 0.5 nM.
With `CCCCCCCC[C@@H]1[C@@H](CCSc2nc(C(=O)O)cs2)[C@H](Cl)C[C@H]1O` [Entry 6-8, 2-(2-((1R,2R,3R,5R)-5-chloro-3-hydroxy-2-octylcyclopentyl)ethylthio)thiazole-4-carboxylic acid], in the data set on DOG [6] (Conc. .005% (g/100 mL)), the “DOG Max. hyperemia” value is recorded as 2.4. In the data set on MONKEY (Conc. .005% (g/100 mL)), the “MONKEY Max. ΔIOP” value is 56%. Further, the “DOG Max. ΔIOP” value in the data set on DOG [7] (Conc. .005% (g/100 mL)) is 44%.
As for `C=CCCCCCC[C@@H]1[C@@H](CCCc2ccc(C(=O)O)s2)[C@H](Cl)C[C@H]1O` [Entry 12, 5-[3-((1R,2R,3R,5R)-5-Chloro-3-hydroxy-2-oct-7-enyl-cyclopentyl)-propyl]-thiophene-2-carboxylic acid], the EC50 at DP was found to be 3210 nM; at EP3, 4990 nM; on FP, 7570 nM; at EP1 it was 883 nM; on EP2 [1], 0.2 nM; at TP, 10300 nM. Besides, the concentration giving a half-maximal response (EC50) at EP4 [2] was determined as 6470 nM; at EP2 [3], 7 nM. The Ki on EP4 [4] stood at 351 nM; at EP2 [5], 3 nM.
